Experimental data reported in patent US10676471B2, “Cycloalkyl-linked diheterocycle derivatives” (Pfizer Inc., priority 2014, dated 2020).

Each molecule was assayed on BT20 Cell (assay: Cancer Cell Lysate Total L-Glutamate Assay). Conditions: Homo sapiens, BT-20, 2 h, total L-glutamate in cell lysate, BT20 cells, 2 hour incubation with test compound.
Format: cell-based
Outline: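 BT20 and other cancer lines at ~80% confluence were given fresh L-glutamine-containing medium, then treated with serially diluted compound (0.5% DMSO) for 2 hours at 37° C. Washed cells were lysed by freeze-thaw and sonication. Lysate glutamate was measured via glutamate oxidase/HRP/50 μM Amplex Red fluorescence (ex 530-560, em 585 nm); IC50 by four-parameter logistic fit.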

SMILES	IC50
COCCC(=O)Nc1nnc([C@H]2CC[C@@H](Cc3ccc(NC(=O)Cc4ccccn4)nn3)C2)s1 (single isomer, unassigned) [Example 122, 3-methoxy-N-{5-[(cis)-3-({6-[(pyridin-2-ylacetyl)amino]pyridazin-3-yl}methyl)cyclopentyl]-1,3,4-thiadiazol-2-yl}propanamide]	0.4 nM
O=C(Cc1ccccn1)Nc1ccc([C@H]2C[C@H](Cc3nnc(NC(=O)Cc4ccccn4)s3)C2)nn1 (single isomer, unassigned) [Example 123, 2-(pyridin-2-yl)-N-{5-[(trans-3-{6-[(pyridin-2-ylacetyl)amino]pyridazin-3-yl}cyclobutyl)methyl]-1,3,4-thiadiazol-2-yl}acetamide]	1.8 nM
O=C(Cc1ccccn1)Nc1ccc([C@H]2C[C@@H](Cc3nnc(NC(=O)Cc4ccccn4)s3)C2)nn1 (single isomer, unassigned) [Example 124, 2-(pyridin-2-yl)-N-{5-[(cis-3-{6-[(pyridin-2-ylacetyl)amino]pyridazin-3-yl}cyclobutyl)methyl]-1,3,4-thiadiazol-2-yl}acetamide]	4.7 nM
O=C(Cc1ccccc1)Nc1ccc(C[C@@H]2CC[C@H](c3nnc(NC(=O)Cc4ccccn4)s3)C2)nn1 [Example 80, 2-phenyl-N-(6-{[(1R,3S)-3-{5-[(pyridin-2-ylacetyl)amino]-1,3,4-thiadiazol-2-yl}cyclopentyl]methyl}pyridazin-3-yl)acetamide]	0.1 nM
CC(C)C(=O)Nc1nnc([C@H]2CC3(C[C@H](c4nnc(NC(=O)C(C)C)s4)C3)C2)s1 (stereo partly shown) [Example 95, N,N′-(spiro[3.3]heptane-2,6-diyldi-1,3,4-thiadiazole-5,2-diyl)bis(2-methylpropanamide)]	1.4 nM
CCC(=O)Nc1nnc([C@H]2CC[C@@H](Cc3ccc(NC(=O)Cc4ccccn4)nn3)C2)s1 [Example 119, N-{5-[(1S,3R)-3-({6-[(pyridin-2-ylacetyl)amino]pyridazin-3-yl}methyl)cyclopentyl]-1,3,4-thiadiazol-2-yl}propanamide]	0.2 nM
CC(C)C(=O)Nc1nnc([C@H]2CC[C@@H](Cc3ccc(NC(=O)Cc4ccccn4)nn3)C2)s1 [Example 120, 2-methyl-N-{5-[(1S,3R)-3-({6-[(pyridin-2-ylacetyl)amino]pyridazin-3-yl}methyl)cyclopentyl]-1,3,4-thiadiazol-2-yl}propanamide]	0.4 nM

Next, values leading:

IC50	SMILES
3.1 nM	CC(C)C(=O)Nc1ccc([C@H]2C[C@@H](Cc3nnc(NC(=O)Cc4ccccn4)s3)C2)nn1 (single isomer, unassigned) [Example 125, 2-methyl-N-{6-[cis-3-({5-[(pyridin-2-ylacetyl)amino]-1,3,4-thiadiazol-2-yl}methyl)cyclobutyl]pyridazin-3-yl}propanamide]
0.5 nM	Cn1ccc(CC(=O)Nc2nnc([C@H]3CC[C@@H](Cc4ccc(NC(=O)Cc5ccccn5)nn4)C3)s2)n1 (single isomer, unassigned) [Example 126, 2-(1-methyl-1H-pyrazol-3-yl)-N-{5-[(cis)-3-({6-[(pyridin-2-ylacetyl)amino]pyridazin-3-yl}methyl)cyclopentyl]-1,3,4-thiadiazol-2-yl}acetamide]
0.7 nM	Cn1ccc(CC(=O)Nc2nnc([C@@H]3CC[C@H](Cc4ccc(NC(=O)Cc5ccccn5)nn4)C3)s2)n1 (single isomer, unassigned) [Example 127, 2-(1-methyl-1H-pyrazol-3-yl)-N-{5-[(cis)-3-({6-[(pyridin-2-ylacetyl)amino]pyridazin-3-yl}methyl)cyclopentyl]-1,3,4-thiadiazol-2-yl}acetamide]
1.8 nM	O=C(Cc1ccccn1)Nc1ccc(C[C@@H]2CC[C@H](c3nnc(NC(=O)C[C@H]4CCCO4)s3)C2)nn1 (single isomer, unassigned) [Example 130]
3.1 nM	O=C(Cc1ccccn1)Nc1ccc(C[C@H]2CC[C@@H](c3nnc(NC(=O)C[C@H]4CCCO4)s3)C2)nn1 (single isomer, unassigned) [Example 131]
1.7 nM	O=C(Cc1ccccn1)Nc1nnc(C[C@@H]2CC[C@H](c3nnc(Nc4ccccn4)s3)C2)s1 (single isomer, unassigned) [Example 133, 2-(pyridin-2-yl)-N-[5-({(cis)-3-[5-(pyridin-2-ylamino)-1,3,4-thiadiazol-2-yl]cyclopentyl}methyl)-1,3,4-thiadiazol-2-yl]acetamide]
1.3 nM	CCC(=O)Nc1nnc(C2CC3(C2)CC(c2nnc(NC(=O)CC)s2)C3)s1 (stereo not shown) [Example 134, N,N′-(spiro[3.3]heptane-2,6-diyldi-1,3,4-thiadiazole-5,2-diyl)dipropanamide]

Same assay, conditions: total L-glutamate in cell lysate, BT20 cells, 2 hour incubation with test compound

IC50	SMILES
2.7 nM	Cn1ccc(CC(=O)Nc2nnc([C@H]3CC4(C[C@H](c5nnc(NC(=O)Cc6ccn(C)n6)s5)C4)C3)s2)n1 (stereo partly shown) [Example 97, N,N′-(spiro[3.3]heptane-2,6-diyldi-1,3,4-thiadiazole-5,2-diyl)bis[2-(1-methyl-1H-pyrazol-3-yl)acetamide]]
0.5 nM	Cn1ccc(CC(=O)Nc2nnc([C@H]3CC4(C[C@H](c5nnc(NC(=O)Cc6ccn(C)n6)s5)C4)C3)s2)n1 (stereo partly shown) [Example 98, N,N′-(spiro[3.3]heptane-2,6-diyldi-1,3,4-thiadiazole-5,2-diyl)bis[2-(1-methyl-1H-pyrazol-3-yl)acetamide]]
